COC(=O)/C=C(\C)N[C@@H](C(=O)[O-])c1ccc(O)cc1.[K+]
Conditions | solubility (mole fraction)
in 2-pentanol, 293.25 K | 6.22e-05
in 2-pentanol, 298.28 K | 7.86e-05
in 2-pentanol, 303.35 K | 9.99e-05
in 2-pentanol, 308.19 K | 0.000117
in 2-pentanol, 313.15 K | 0.000141
in 2-pentanol, 318.29 K | 0.000169
in 2-pentanol, 323.15 K | 0.000196
in 2-pentanol, 328.34 K | 0.000233
in 2-pentanol, 333.05 K | 0.000267
in 2-pentanol, 338.24 K | 0.00031
in 2-pentanol, 343.26 K | 0.000354
in ethanol, 293.25 K | 0.000405
in ethanol, 298.26 K | 0.000437
in ethanol, 303.25 K | 0.000478
in ethanol, 308.19 K | 0.000519
in ethanol, 313.09 K | 0.00056
in ethanol, 318.26 K | 0.000629
in ethanol, 323.11 K | 0.000681
in ethanol, 328.18 K | 0.000753
in ethanol, 333.41 K | 0.000834
in ethanol, 338.31 K | 0.000916
in ethanol, 343.35 K | 0.00104
in isopropanol, 293.25 K | 5.74e-05
in isopropanol, 298.23 K | 6.38e-05
in isopropanol, 303.05 K | 7.22e-05
in isopropanol, 308.41 K | 8.4e-05
in isopropanol, 313.15 K | 9.66e-05
in isopropanol, 318.26 K | 0.000112
in isopropanol, 323.15 K | 0.00013
in isopropanol, 328.19 K | 0.00015
in isopropanol, 333.35 K | 0.000173
in isopropanol, 338.27 K | 0.000198
in isopropanol, 343.25 K | 0.000225
in methanol, 293.15 K | 0.00346
in methanol, 298.22 K | 0.0037
in methanol, 303.15 K | 0.00396
in methanol, 308.19 K | 0.00424
in methanol, 313.35 K | 0.00454
in methanol, 318.27 K | 0.00485
in methanol, 323.35 K | 0.00519
in methanol, 328.16 K | 0.00552
in methanol, 333.35 K | 0.006
in n-butanol, 293.15 K | 9.97e-05
in n-butanol, 298.31 K | 0.00011
in n-butanol, 302.95 K | 0.000122
in n-butanol, 308.19 K | 0.000139
in n-butanol, 312.95 K | 0.000158
in n-butanol, 318.16 K | 0.000181
in n-butanol, 323.25 K | 0.000207
in n-butanol, 328.29 K | 0.000237
in n-butanol, 333.17 K | 0.000268
in n-butanol, 338.32 K | 0.000304
in n-butanol, 342.95 K | 0.000339
in n-pentanol, 293.05 K | 8.48e-05
in n-pentanol, 298.25 K | 0.000102
in n-pentanol, 303.25 K | 0.000119
in n-pentanol, 308.19 K | 0.000134
in n-pentanol, 313.07 K | 0.000152
in n-pentanol, 318.26 K | 0.00017
in n-pentanol, 323.25 K | 0.00019
in n-pentanol, 328.17 K | 0.000209
in n-pentanol, 333.25 K | 0.000226
in n-pentanol, 338.13 K | 0.000252
in n-pentanol, 343.35 K | 0.000279
in n-propanol, 293.15 K | 0.000178
in n-propanol, 298.23 K | 0.000191
in n-propanol, 303.05 K | 0.000206
in n-propanol, 308.18 K | 0.000228
in n-propanol, 313.05 K | 0.000256
in n-propanol, 318.29 K | 0.00028
in n-propanol, 323.05 K | 0.000306
in n-propanol, 328.21 K | 0.000345
in n-propanol, 333.25 K | 0.000382
in n-propanol, 338.34 K | 0.000427
in n-propanol, 343.35 K | 0.000476
in sec-butanol, 293.35 K | 3.51e-05
in sec-butanol, 298.24 K | 4.38e-05
in sec-butanol, 303.05 K | 5.87e-05
in sec-butanol, 308.17 K | 6.64e-05
in sec-butanol, 313.05 K | 8.11e-05
in sec-butanol, 318.36 K | 9.62e-05
in sec-butanol, 323.23 K | 0.000113
in sec-butanol, 328.26 K | 0.000132
in sec-butanol, 333.15 K | 0.000151
in sec-butanol, 338.28 K | 0.000174
in sec-butanol, 343.23 K | 0.000197

From BigSolDB 2.1
